These results are taken from ChEMBL document CHEMBL3233012, “Synthesis, antimicrobial and cytotoxic activities of pyrimidinyl benzoxazole, benzothiazole and benzimidazole” (Eur J Med Chem, 2014).

Assay [1] deals with Staphylococcus aureus. In words: Antimicrobial activity against Staphylococcus aureus at 25 ug/well after 24 hrs by agar well diffusion method. It counts as functional. Conditions: read-out: DIZ. On the technique in general: In agar diffusion tests the substance spreads into inoculated agar from a disc or well.
Assay [2] has as its system Staphylococcus aureus. In words: Antimicrobial activity against Staphylococcus aureus at 50 ug/well after 24 hrs by agar well diffusion method. The conditions noted are these: read-out: DIZ. It counts as functional.
Assay [3] has as its system Staphylococcus aureus. Nature of the assay: Antimicrobial activity against Staphylococcus aureus at 100 ug/well after 24 hrs by agar well diffusion method. The format is functional. Conditions: read-out: DIZ.
Assay [4] has as its system Escherichia coli. In words: Antimicrobial activity against Escherichia coli at 25 ug/well after 24 hrs by agar well diffusion method. It counts as functional. Conditions: read-out: DIZ.
Assay [5] deals with Escherichia coli. Nature of the assay: Antimicrobial activity against Escherichia coli at 50 ug/well after 24 hrs by agar well diffusion method. Conditions: read-out: DIZ. It counts as functional.
Assay [6] concerns Escherichia coli. In words: Antimicrobial activity against Escherichia coli at 100 ug/well after 24 hrs by agar well diffusion method. It counts as functional. Conditions: read-out: DIZ.
The subject of assay [7] is Pseudomonas aeruginosa. Nature of the assay: Antimicrobial activity against Pseudomonas aeruginosa at 25 ug/well after 24 hrs by agar well diffusion method. The format is functional. Conditions: read-out: DIZ.
Assay [8] concerns Pseudomonas aeruginosa. In words: Antimicrobial activity against Pseudomonas aeruginosa at 50 ug/well after 24 hrs by agar well diffusion method. The format is functional. Conditions: read-out: DIZ.
Assay [9] relates to Pseudomonas aeruginosa. Nature of the assay: Antimicrobial activity against Pseudomonas aeruginosa at 100 ug/well after 24 hrs by agar well diffusion method. The format is functional. The conditions noted are these: read-out: DIZ.
Assay [10] has as its system Aspergillus niger. Nature of the assay: Antimicrobial activity against Aspergillus niger at 25 ug/well after 48 hrs by agar well diffusion method. It counts as functional. Conditions: for zone of inhibition at 25 µg/disc: read-out: DIZ.
In assay [11] the test system is Aspergillus niger. In words: Antimicrobial activity against Aspergillus niger at 50 ug/well after 48 hrs by agar well diffusion method. The format is functional. The conditions noted are these: read-out: DIZ.
Assay [12] concerns Aspergillus niger. Nature of the assay: Antimicrobial activity against Aspergillus niger at 100 ug/well after 48 hrs by agar well diffusion method. It counts as functional. Conditions: read-out: DIZ.
Assay [13] relates to Penicillium chrysogenum. Nature of the assay: Antimicrobial activity against Penicillium chrysogenum at 25 ug/well after 48 hrs by agar well diffusion method. The conditions noted are these: for zone of inhibition at 25 µg/disc: read-out: DIZ. The format is functional.
Assay [14] has as its system Penicillium chrysogenum. Nature of the assay: Antimicrobial activity against Penicillium chrysogenum at 50 ug/well after 48 hrs by agar well diffusion method. Conditions: read-out: DIZ. The format is functional.
In assay [15] the test system is Penicillium chrysogenum. Nature of the assay: Antimicrobial activity against Penicillium chrysogenum at 100 ug/well after 48 hrs by agar well diffusion method. The format is functional. Conditions: read-out: DIZ.
Assay [16] concerns A549. In words: Cytotoxicity against human A549 cells assessed as reduction in cell viability after 20 hrs by MTT assay. The format is functional, cell-based. Conditions: for pIC50: A549, 20 h. On the technique in general: Tetrazolium dyes change colour on reduction, which living cells bring about.
Assay [17] concerns Staphylococcus aureus. Nature of the assay: Antimicrobial activity against Staphylococcus aureus ATCC 25923 after 24 hrs by broth dilution method. The format is functional.
For assay [18], the system named is Escherichia coli. Nature of the assay: Antimicrobial activity against Escherichia coli ATCC 25922 after 24 hrs by broth dilution method. The format is functional. In general terms: Broth dilution looks for growth in wells or tubes with falling amounts of substance.
Assay [19] concerns Aspergillus niger. Nature of the assay: Antimicrobial activity against Aspergillus niger after 24 hrs by broth dilution method. The format is functional.
The subject of assay [20] is Penicillium chrysogenum. In words: Antimicrobial activity against Penicillium chrysogenum after 24 hrs by broth dilution method. The format is functional.
Assay [21] concerns A549. Nature of the assay: Cytotoxicity against human A549 cells assessed as reduction in cell viability up to 200 uM after 20 hrs by MTT assay. The format is functional, cell-based.
Assay [22] deals with Pseudomonas aeruginosa. In words: Antimicrobial activity against Pseudomonas aeruginosa ATCC 27853 after 24 hrs by broth dilution method. The format is functional.
In assay [23] the test system is Staphylococcus aureus. Nature of the assay: Antimicrobial activity against Staphylococcus aureus ATCC 25923 after 24 hrs. Conditions: ATCC 25923, 24 h. The format is functional.
Assay [24] concerns Escherichia coli. In words: Antimicrobial activity against Escherichia coli ATCC 25922 after 24 hrs. It counts as functional. Conditions: ATCC 25922, 24 h.
Assay [25] concerns Pseudomonas aeruginosa. In words: Antimicrobial activity against Pseudomonas aeruginosa ATCC 27853 after 24 hrs. The format is functional. Conditions: ATCC 27853, 24 h.
Assay [26] has as its system Aspergillus niger. In words: Antimicrobial activity against Aspergillus niger after 24 hrs. It counts as functional.
Assay [27] relates to Penicillium chrysogenum. Nature of the assay: Antimicrobial activity against Penicillium chrysogenum after 24 hrs. The format is functional.
For assay [28], the system named is Penicillium chrysogenum. Nature of the assay: Ratio of MBC to MIC for Penicillium chrysogenum. It counts as functional.
The test system of assay [29] is Staphylococcus aureus. Nature of the assay: Ratio of MBC to MIC for Staphylococcus aureus ATCC 25923. The format is functional.

Structures are written as SMILES. pIC50: −log10 of the molar value. Converted amounts (≈) assume the structure as drawn. The source made the active and inactive calls.

One may read the pIC50 as the negative decadic logarithm of the IC50, by convention in mol/L. In the case of `Cc1cc(Nc2nc3ccccc3s2)nc(SCc2nc3ccccc3s2)n1`, the zone of inhibition at 25 µg/disc in assay [1] worked out at 13 mm; in assay [4], 15 mm; in [7], 14 mm; in assay [10], 17 mm; in [13], 27 mm. Moreover, the zone of inhibition at 50 µg/disc was 16 mm in assay [2]; 20 mm in assay [5]; 17 mm in assay [8]; 19 mm in assay [11]; 29 mm in assay [14]. Moreover, the zone of inhibition at 100 µg/disc in assay [3] was found to be 18 mm; in assay [6], 23 mm; in assay [9] it was 18 mm; in assay [12] it was 21 mm; in assay [15], 32 mm. Moreover, the inhibition entry in assay [16] is “Dose-dependent effect”. The pIC50 in assay [16] was 4.98.
A word on the MIC: it is the smallest concentration in the dilution series that meets the test's criterion for growth inhibition. Turning to `O=C(O)c1cn(C2CC2)c2cc(N3CCNCC3)c(F)cc2c1=O` [CIPROFLOXACIN], the zone of inhibition at 25 µg/disc in [1] came to 22 mm; in assay [4], 30 mm; in [7], 25 mm. Also, the figures for the zone of inhibition at 50 µg/disc in [2], in assay [5] and in assay [8] were 24 mm, 35 mm and 28 mm, respectively. For the same molecule, the zone of inhibition at 100 µg/disc in assay [3] came out at 27 mm; in assay [6], 38 mm; in assay [9], 30 mm. The MIC is 12.5 µg/mL (≈ 37.7 µM) in [17] (ATCC 25923, 24 h) and 12.5 µg/mL (≈ 37.7 µM) in assay [18] (ATCC 25922, 24 h). The MIC result in [19] and in assay [20] was “inactive” throughout.
`Cc1cc(Nc2nc3ccccc3o2)nc(SCc2nc3ccccc3o2)n1`: the zone of inhibition at 25 µg/disc in assay [1] is 10 mm; in [4], 12 mm; in assay [7], 11 mm; in assay [10], 15 mm; in assay [13], 19 mm. For the same molecule, the zone of inhibition at 50 µg/disc in assay [2] came out at 13 mm; in assay [5], 17 mm; in assay [8] it was 14 mm; in [11], 17 mm; in assay [14], 21 mm. Also, the zone of inhibition at 100 µg/disc in assay [3] came to 17 mm; in [6] it was 20 mm; in assay [9], 17 mm; in assay [12] it was 19 mm; in [15], 24 mm. Besides, the result in assay [21] was inactive.
Turning to `Cc1cc(Cl)nc(SCc2nc3ccccc3o2)n1`, the zone of inhibition at 25 µg/disc in [1] came out at 5 mm; in [4], 6 mm; in assay [7], 5 mm. Also, the zone of inhibition at 50 µg/disc turned out to be 7 mm in assay [2]; 8 mm in assay [5]; 7 mm in assay [8]; 7 mm in assay [11]; 8 mm in assay [14]. The zone of inhibition at 100 µg/disc in assay [3] came to 8 mm; in assay [6] it was 11 mm; in [9] it was 8 mm; in assay [12] it was 9 mm; in assay [15], 10 mm. Also, the “diameter of the inhibition zone (DIZ)” value in assay [10] and in [13] was “inactive” throughout. Also, the result in [21] was inactive.
For orientation: MBC means the smallest concentration meeting the test's criterion for killing. A high value points to less potent killing. On to `Cc1cc(SCc2nc3ccccc3[nH]2)nc(SCc2nc3ccccc3[nH]2)n1`, for which the zone of inhibition at 25 µg/disc was found to be 23 mm in assay [1]; 28 mm in [4]; 22 mm in assay [7]; 27 mm in assay [10]; 33 mm in [13]. In addition, the zone of inhibition at 50 µg/disc in [2] was 26 mm; in assay [5], 32 mm; in assay [8], 25 mm; in [11], 30 mm; in assay [14], 35 mm. The zone of inhibition at 100 µg/disc in assay [3] was determined as 29 mm; in [6], 35 mm; in [9], 27 mm; in assay [12], 32 mm; in [15] it was 38 mm. In addition, the MIC turned out to be 12.5 µg/mL (≈ 29.9 µM) in [17] (ATCC 25923, 24 h); 50 µg/mL (≈ 119 µM) in assay [18] (ATCC 25922, 24 h); 12.5 µg/mL (≈ 29.9 µM) in [22] (ATCC 27853, 24 h); 12.5 µg/mL (≈ 29.9 µM) in [19]; 12.5 µg/mL (≈ 29.9 µM) in [20]. The MBC in assay [23] was determined as 25 µg/mL (≈ 59.7 µM); in assay [24], 200 µg/mL (≈ 478 µM); in assay [25], 100 µg/mL (≈ 239 µM). Also, the MFC in [26] came to 100 µg/mL (≈ 239 µM); in assay [27] it was 25 µg/mL (≈ 59.7 µM). Besides, the Ratio in assay [28] and in [29] was 2 each time. Moreover, the outcome in [21] was inactive.
`CC(=O)N1CCN(c2ccc(OCC3COC(Cn4ccnc4)(c4ccc(Cl)cc4Cl)O3)cc2)CC1` (centres undefined) [KETOCONAZOLE]: the zone of inhibition at 25 µg/disc in assay [10] was 31 mm; in assay [13], 35 mm. Also, the zone of inhibition at 50 µg/disc in assay [11] was 33 mm; in assay [14], 36 mm. For the same molecule, the zone of inhibition at 100 µg/disc turned out to be 36 mm in assay [12] and 38 mm in [15]. The MIC result in [17], in assay [18] and in [22] was “inactive” throughout. The MIC in [19] came out at 6.25 µg/mL (≈ 11.8 µM); in [20], 12.5 µg/mL (≈ 23.5 µM).
Take `Cc1cc(Cl)nc(SCc2nc3ccccc3[nH]2)n1`: the zone of inhibition at 25 µg/disc was determined as 8 mm in assay [1]; 8 mm in [4]; 8 mm in [7]; 7 mm in assay [10]; 8 mm in [13]. The zone of inhibition at 50 µg/disc in assay [2] is 10 mm; in assay [5] it was 13 mm; in assay [8], 10 mm; in [11], 9 mm; in assay [14], 10 mm. Besides, the zone of inhibition at 100 µg/disc in assay [3] worked out at 12 mm; in assay [6], 16 mm; in [9], 12 mm; in assay [12] it was 11 mm; in assay [15], 12 mm. In [21], the outcome was inactive.
As to `Cc1cc(Sc2nc3ccccc3s2)nc(SCc2nc3ccccc3s2)n1`, the zone of inhibition at 25 µg/disc was found to be 10 mm in assay [1]; 14 mm in assay [4]; 13 mm in [7]; 10 mm in assay [10]; 12 mm in assay [13]. The zone of inhibition at 50 µg/disc was 12 mm in [2]; 17 mm in [5]; 15 mm in [8]; 12 mm in [11]; 13 mm in assay [14]. Also, the zone of inhibition at 100 µg/disc in [3] turned out to be 16 mm; in assay [6], 20 mm; in assay [9] it was 16 mm; in [12], 15 mm; in [15], 15 mm. Moreover, the inhibition result in assay [16] is “Dose-dependent effect”. In [16], the pIC50 was 4.15.
